Values of other authors as cited in patent US20110130710A1, “TREATMENT OF ABNORMAL OR EXCESSIVE SCARS” (priority 2007, published 2011).

How the values were obtained:
[1] = applied topically
[2] = tested on: epithelial tissue; details: about 50 μl, topical application

Row | Molecule | effective dose of PDGF [1] [ng/mm^2] | concentration of KGF that may be effective for wound healing [2]
1 | platelet derived growth factor [PDGF] | ≥ 5 | 
2 | keratinocyte growth factor (protein, UniProt P21781 32-194, looked up, growth factor useful for wound healing) Fibroblast growth factor 7: CNDMTPEQMATNVNCSSPERHTRSYDYMEGGDIRVRRLFCRTQWYLRIDKRGKVKGTQEMKNNYNIMEIRTVAVGIVAIKGVESEFYLAMNKEGKLYAKKECNEDCNFKELILENHYNTYASAKWTHNGGEMFVALNQKGIPVRGKKTKKEQKTAHFLPMAIT |  | about 5 μg/ml
